Where two headings read alike, the source gives them in different places.
How the values were obtained:
[1] = Binding affinity (log Ka) of guests for the macrocyclic receptor cucurbit[7]uril; settings: PtC as indicator for CB7 (CB7⊃PtC inclusion complex), result in words
[2] = cited from earlier work
[3] = binding affinity for CB7 (host-guest complex)

In the case of OCCOCCOCCn1cc2[n+](n1)[Pt-2]([Cl])([Cl])[n+]1ccccc1-2 [PtC], the binding affinity [1] is reported as “intermediate”.

For NCCc1ccc(O)c(O)c1 [dopamine], the “log Ka” value [2, 3] is listed as 5.0.

In the case of CC(=O)O[C@H]1C[C@@H]2CC[C@@H]3[C@H](CC[C@@]4(C)[C@H]3C[C@H]([N+]3(C)CCCCC3)[C@@H]4OC(C)=O)[C@@]2(C)C[C@@H]1[N+]1(C)CCCCC1 [pancuronium bromide], the “log Ka” value [2] is given as 10.23.

In the case of NCCc1c[nH]c2ccc(O)cc12 [serotonin], the “log Ka” value [2, 3] is given as 4.8.
